Here are results for 18 compounds from patent publication US9802937B2, “Substituted pyrazolo{4,3-D}pyrimidines as kinase inhibitors” (ORIGENIS GMBH, priority 2011, dated 2017).

The term IC50 denotes the concentration that gives 50% inhibition.

SMILES strings stand for the structures. A value given as a limit tells only on which side of the number the result lay.

Test [1] addresses LRRK2 (Homo sapiens, UniProt Q5S007). Put plainly: LRRK2-LRRK2 G2019S-Assay (LanthaScreen Eu Kinase Binding Assay). The settings on record: 5 nM LRRK2 or their mutants, 10 nM tracer 236, RT 1 h; read-out: LRRK2 Activities: IC50. In a few lines:
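Kinase (wild type or mutant, 5 nM) mixed with Eu-anti-GST antibody (2 nM), then 10 nM Alexa Fluor 647 tracer 236 added. After 1 h at room temperature, the acceptor/donor (665/615 nm) FRET ratio was measured. IC50 was fitted from concentration–ratio curves.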

Test [2] addresses T1, SYK kinase (Homo sapiens, UniProt P43405).
T1 construct: purchased Invitrogen, Carlsbad
Put plainly: SYK Assay (OMNIA KINASE ASSAY, SOX peptide fluorescence). Format: biochemical. The settings on record: apparent Ki calculated from the IC50 using the Cheng-Prusoff equation; 1 mM ATP, 30° C.; read-out: SYK Activities: Ki. The method in brief:
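Apparent Ki values are derived by Cheng-Prusoff from IC50s of sigmoidal fits of reaction rate against compound concentration. Rates come from chelation-enhanced SOX fluorescence (λex 360/λem 485 nm, read every 30 s over 30 min) as the kinase phosphorylates 10 µM Omnia Tyr 7 peptide at 30 °C, with 1 mM ATP and 0.2 mM DTT.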

Test [3] addresses MYLK (Homo sapiens, UniProt Q15746). The experiment in a line: MYLK Assay (LanthaScreen Eu Kinase Binding Assay). The settings on record: 5 nM MYLK, 30 nM tracer 236, RT 1 h; read-out: MYLK Activities: IC50. In a few lines:
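TR-FRET tracer displacement with 5 nM GST-MYLK, 2 nM Eu-anti-GST antibody and 30 nM tracer 236 in kinase buffer A, 1 h at RT. Emission ratio 665/615 nm (ex 340 nm) plotted against inhibitor concentration, IC50 from a variable-slope sigmoidal fit.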
A general note: Time-resolved FRET reads energy transfer from a long-lived donor to a nearby acceptor.

The test system of test [4] is JAK kinases. To be noted: cited from earlier work.
In test [5] the test system is lymphoma cell lines and primary human lymphoma samples. To be noted: cited from earlier work.
Test [6] has as its system Syk. To be noted: various stimuli, including FcepsilonR1 and BCR induced Syk activation; cited from earlier work.
Test [7] deals with refractory NHL and chronic lymphocytic leukemia. The settings on record: phase II; cited from earlier work.

LRRK2, sequence (Q5S007 970-2527 limits assumed): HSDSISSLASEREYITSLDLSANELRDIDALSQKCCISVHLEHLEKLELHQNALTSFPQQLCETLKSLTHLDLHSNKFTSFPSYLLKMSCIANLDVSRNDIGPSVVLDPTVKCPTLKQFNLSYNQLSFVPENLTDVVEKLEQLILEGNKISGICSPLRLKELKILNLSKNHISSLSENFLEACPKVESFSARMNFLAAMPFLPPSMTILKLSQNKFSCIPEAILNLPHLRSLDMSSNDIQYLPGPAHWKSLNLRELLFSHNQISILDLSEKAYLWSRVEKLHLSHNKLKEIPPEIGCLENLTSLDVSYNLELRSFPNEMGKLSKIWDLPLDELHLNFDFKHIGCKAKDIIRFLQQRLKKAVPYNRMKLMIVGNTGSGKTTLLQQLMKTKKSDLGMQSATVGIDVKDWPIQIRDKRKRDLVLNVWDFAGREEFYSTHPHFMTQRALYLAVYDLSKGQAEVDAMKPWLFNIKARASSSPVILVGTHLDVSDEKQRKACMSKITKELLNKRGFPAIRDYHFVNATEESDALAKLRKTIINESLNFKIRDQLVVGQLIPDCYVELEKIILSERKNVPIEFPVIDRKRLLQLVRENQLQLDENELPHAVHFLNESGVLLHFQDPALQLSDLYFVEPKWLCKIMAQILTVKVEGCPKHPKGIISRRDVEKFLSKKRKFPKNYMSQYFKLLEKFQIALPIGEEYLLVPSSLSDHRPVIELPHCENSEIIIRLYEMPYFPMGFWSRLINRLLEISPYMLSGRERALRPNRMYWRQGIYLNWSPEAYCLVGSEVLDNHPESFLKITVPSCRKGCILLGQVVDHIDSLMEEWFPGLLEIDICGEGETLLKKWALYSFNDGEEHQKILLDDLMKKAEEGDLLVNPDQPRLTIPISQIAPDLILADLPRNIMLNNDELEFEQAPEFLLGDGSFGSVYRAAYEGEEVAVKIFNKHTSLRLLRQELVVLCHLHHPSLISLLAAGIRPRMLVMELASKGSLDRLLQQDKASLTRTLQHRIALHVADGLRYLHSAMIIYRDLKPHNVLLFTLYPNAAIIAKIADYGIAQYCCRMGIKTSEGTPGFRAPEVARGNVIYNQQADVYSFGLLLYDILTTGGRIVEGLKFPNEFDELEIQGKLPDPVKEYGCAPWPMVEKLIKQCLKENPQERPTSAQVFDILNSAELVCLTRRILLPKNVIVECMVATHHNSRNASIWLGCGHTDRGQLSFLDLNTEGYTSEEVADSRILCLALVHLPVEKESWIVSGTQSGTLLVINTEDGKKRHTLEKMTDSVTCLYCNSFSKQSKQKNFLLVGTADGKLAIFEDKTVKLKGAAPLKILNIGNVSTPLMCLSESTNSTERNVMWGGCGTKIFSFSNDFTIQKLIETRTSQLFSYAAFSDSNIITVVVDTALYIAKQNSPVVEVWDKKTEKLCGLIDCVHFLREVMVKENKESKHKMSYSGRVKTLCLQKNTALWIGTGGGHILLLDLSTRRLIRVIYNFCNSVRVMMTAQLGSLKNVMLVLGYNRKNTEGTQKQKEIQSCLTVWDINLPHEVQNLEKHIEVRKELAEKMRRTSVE
MYLK, sequence (Q15746 whole entry): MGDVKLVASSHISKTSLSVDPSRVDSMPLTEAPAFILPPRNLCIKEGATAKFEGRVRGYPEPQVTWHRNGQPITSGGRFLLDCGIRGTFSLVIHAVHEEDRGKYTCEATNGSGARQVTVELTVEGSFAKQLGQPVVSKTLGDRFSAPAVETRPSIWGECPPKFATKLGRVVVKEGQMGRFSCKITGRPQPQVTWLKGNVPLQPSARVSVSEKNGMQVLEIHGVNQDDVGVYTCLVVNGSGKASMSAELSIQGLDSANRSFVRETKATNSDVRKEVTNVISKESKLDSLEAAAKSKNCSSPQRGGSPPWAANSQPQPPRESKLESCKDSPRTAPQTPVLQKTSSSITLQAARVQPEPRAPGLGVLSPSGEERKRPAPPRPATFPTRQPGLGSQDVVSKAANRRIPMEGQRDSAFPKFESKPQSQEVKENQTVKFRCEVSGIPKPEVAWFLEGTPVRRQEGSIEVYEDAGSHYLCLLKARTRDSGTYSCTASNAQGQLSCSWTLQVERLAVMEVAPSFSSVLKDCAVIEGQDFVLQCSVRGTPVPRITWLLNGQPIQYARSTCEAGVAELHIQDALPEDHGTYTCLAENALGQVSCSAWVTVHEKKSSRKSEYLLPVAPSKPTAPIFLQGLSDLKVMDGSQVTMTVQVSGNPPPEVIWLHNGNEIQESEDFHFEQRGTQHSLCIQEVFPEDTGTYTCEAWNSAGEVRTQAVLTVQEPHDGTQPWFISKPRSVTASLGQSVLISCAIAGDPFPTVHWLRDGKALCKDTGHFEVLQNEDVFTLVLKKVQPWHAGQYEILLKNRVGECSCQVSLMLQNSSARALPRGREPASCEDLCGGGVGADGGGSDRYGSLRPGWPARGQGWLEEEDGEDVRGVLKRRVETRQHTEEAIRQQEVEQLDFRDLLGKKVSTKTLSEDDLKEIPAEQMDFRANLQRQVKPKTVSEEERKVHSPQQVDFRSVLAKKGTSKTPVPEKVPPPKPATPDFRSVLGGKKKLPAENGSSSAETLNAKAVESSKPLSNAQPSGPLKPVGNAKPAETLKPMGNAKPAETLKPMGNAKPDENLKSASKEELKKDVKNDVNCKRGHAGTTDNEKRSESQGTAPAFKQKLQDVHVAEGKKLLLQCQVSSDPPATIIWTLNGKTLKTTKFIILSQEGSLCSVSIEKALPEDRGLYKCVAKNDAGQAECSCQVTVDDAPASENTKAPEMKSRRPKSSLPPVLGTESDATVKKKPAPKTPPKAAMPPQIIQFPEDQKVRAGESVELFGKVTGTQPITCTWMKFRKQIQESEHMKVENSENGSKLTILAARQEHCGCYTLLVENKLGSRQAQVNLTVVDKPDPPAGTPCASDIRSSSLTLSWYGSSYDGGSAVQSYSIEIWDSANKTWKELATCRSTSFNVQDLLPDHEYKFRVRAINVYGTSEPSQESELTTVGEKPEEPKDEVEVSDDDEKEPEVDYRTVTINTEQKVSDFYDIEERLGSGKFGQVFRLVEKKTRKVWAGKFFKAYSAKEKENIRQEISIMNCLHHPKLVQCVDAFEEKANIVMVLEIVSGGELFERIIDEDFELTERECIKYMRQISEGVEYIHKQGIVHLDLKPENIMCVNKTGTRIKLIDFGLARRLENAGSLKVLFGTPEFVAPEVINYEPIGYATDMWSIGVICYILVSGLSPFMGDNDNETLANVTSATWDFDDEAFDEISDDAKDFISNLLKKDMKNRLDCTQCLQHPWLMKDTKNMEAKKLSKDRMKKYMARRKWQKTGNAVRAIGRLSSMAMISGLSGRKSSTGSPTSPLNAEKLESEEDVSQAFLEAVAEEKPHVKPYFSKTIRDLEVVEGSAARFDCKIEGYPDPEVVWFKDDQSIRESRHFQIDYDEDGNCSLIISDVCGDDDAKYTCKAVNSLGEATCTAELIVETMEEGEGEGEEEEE

As to `CS(=O)(=O)Nc1cccc(-c2nc(Nc3ccc4c(c3)NC(=O)CC4)c3[nH]ncc3n2)c1` [Example #190, N-(3-(7-((2-oxo-1,2,3,4-tetrahydroquinolin-7-yl)amino)-1H-pyrazolo[4,3-d]pyrimidin-5-yl)phenyl)methanesulfonamide], the values for the 50% inhibitory concentration (IC50) in test [1] and in test [3] were 10 to 100 nM and under 5000 nM, respectively. In test [2], the Ki is under 10 nM.

On to `CC(=O)N1CCN(c2ccc(Nc3nc(-c4cccc(NS(C)(=O)=O)c4)nc4cn[nH]c34)cc2)CC1` [Example #191, N-(3-(7-((4-(4-acetylpiperazin-1-yl)phenyl)amino)-1H-pyrazolo[4,3-d]pyrimidin-5-yl)phenyl)methanesulfonamide], for which the IC50 in test [1] is 100 to 1000 nM; in test [3] it was under 5000 nM. The Ki in test [2] was under 10 nM.

Consider `CSc1cccc(-c2nc(Nc3ccc(N4CCN(C)CC4)cc3)c3[nH]ncc3n2)c1` [Example #225, N-(4-(4-methylpiperazin-1-yl)phenyl)-5-(3-(methylthio)phenyl)-1H-pyrazolo[4,3-d]pyrimidin-7-amine], for which the IC50 is 100 to 1000 nM in test [1] and under 5000 nM in test [3]. In addition, the Ki in test [2] is under 10 nM.

On to `NS(=O)(=O)c1cccc(-c2nc(Nc3ccc4c(c3)NC(=O)CC4)c3[nH]ncc3n2)c1` [Example #238, 3-(7-((2-oxo-1,2,3,4-tetrahydroquinolin-7-yl)amino)-1H-pyrazolo[4,3-d]pyrimidin-5-yl)benzenesulfonamide], for which the IC50 in test [1] was 10 to 100 nM; in test [3], under 5000 nM. Moreover, the Ki in test [2] was under 10 nM.

With `COc1cc(Nc2nc(-c3cccc(S(N)(=O)=O)c3)nc3cn[nH]c23)ccc1N1CCOCC1` [Example #240, 3-(7-((3-methoxy-4-morpholinophenyl)amino)-1H-pyrazolo[4,3-d]pyrimidin-5-yl)benzenesulfonamide], the IC50 in test [1] is 100 to 1000 nM; in test [3] it was under 5000 nM. In addition, the Ki in test [2] is under 10 nM.

As to `c1cc(N2CCOCC2)ccc1Nc1nc(-c2ccc3cn[nH]c3c2)nc2cn[nH]c12` [Example #247, 5-(1H-indazol-6-yl)-N-(4-morpholinophenyl)-1H-pyrazolo[4,3-d]pyrimidin-7-amine], the IC50 in test [1] is under 10 nM; in test [3], under 5000 nM. For the same compound, the Ki in test [2] was under 10 nM.

With `CN1CCN(c2ccc(Nc3nc(-c4ccc5cn[nH]c5c4)nc4cn[nH]c34)cc2)CC1` [Example #248, 5-(1H-indazol-6-yl)-N-(4-(4-methylpiperazin-1-yl)phenyl)-1H-pyrazolo[4,3-d]pyrimidin-7-amine], the IC50 in test [1] is 100 to 1000 nM; in test [3], under 5000 nM. In test [2], the Ki is under 10 nM.

`CS(=O)(=O)c1cccc(Nc2nc(-c3cccs3)nc3cn[nH]c23)c1` [Example #254, N-(3-(methylsulfonyl)phenyl)-5-(thiophen-2-yl)-1H-pyrazolo[4,3-d]pyrimidin-7-amine]: the results for the IC50 in test [1] and in test [3] were 100 to 1000 nM and under 5000 nM, respectively. Also, the Ki in test [2] is 10 to 100 nM.

Turning to `C[S+]([O-])c1cccc(Nc2nc(-c3cccs3)nc3cn[nH]c23)c1` (centres unmarked) [Example #268, N-(3-(methylsulfinyl)phenyl)-5-(thiophen-2-yl)-1H-pyrazolo[4,3-d]pyrimidin-7-amine], the IC50 in test [1] was 100 to 1000 nM; in test [3] it was under 5000 nM. Besides, the Ki in test [2] is 10 to 100 nM.

As for `CN1CCN(c2ccc(Nc3nc(-c4ccccc4F)nc4cn[nH]c34)cc2)CC1` [Example #275, 5-(2-fluorophenyl)-N-(4-(4-methylpiperazin-1-yl)phenyl)-1H-pyrazolo[4,3-d]pyrimidin-7-amine], the IC50 was 100 to 1000 nM in test [1] and under 5000 nM in test [3]. In test [2], the Ki is under 10 nM.

Take `Fc1ccccc1-c1nc(Nc2ccc(N3CCN(C4CC4)CC3)cc2)c2[nH]ncc2n1` [Example #279, N-(4-(4-cyclopropylpiperazin-1-yl)phenyl)-5-(2-fluorophenyl)-1H-pyrazolo[4,3-d]pyrimidin-7-amine]: the IC50 is 100 to 1000 nM in test [1] and under 5000 nM in test [3]. Further, in test [2], the Ki was 10 to 100 nM.

Take `COc1ccc(Nc2nc(-c3ccc4cn[nH]c4c3)nc3cn[nH]c23)cc1OC` [Example #280, N-(3,4-dimethoxyphenyl)-5-(1H-indazol-6-yl)-1H-pyrazolo[4,3-d]pyrimidin-7-amine]: the IC50 was 10 to 100 nM in test [1] and under 5000 nM in test [3]. For the same compound, the Ki in test [2] was under 10 nM.

In the case of `CN1CCN(C2CCN(c3ccc(Nc4nc(-c5c(F)cccc5F)nc5cn[nH]c45)cc3)CC2)CC1` [Example #284, 5-(2,6-difluorophenyl)-N-(4-(4-(4-methylpiperazin-1-yl)piperidin-1-yl)phenyl)-1H-pyrazolo[4,3-d]pyrimidin-7-amine], the IC50 in test [1] was 100 to 1000 nM; in test [3], under 5000 nM. In test [2], the Ki is 10 to 100 nM.

Turning to `CN1CCN(C2CCN(c3ccc(Nc4nc(-c5cccs5)nc5cn[nH]c45)cc3)CC2)CC1` [Example #290, N-(4-(4-(4-methylpiperazin-1-yl)piperidin-1-yl)phenyl)-5-(thiophen-2-yl)-1H-pyrazolo[4,3-d]pyrimidin-7-amine], the IC50 in test [1] is 100 to 1000 nM; in test [3] it was under 5000 nM. Moreover, the Ki in test [2] was under 10 nM.

For `c1csc(-c2nc(Nc3ccc(N4CCN(C5CC5)CC4)cc3)c3[nH]ncc3n2)c1` [Example #293, N-(4-(4-cyclopropylpiperazin-1-yl)phenyl)-5-(thiophen-2-yl)-1H-pyrazolo[4,3-d]pyrimidin-7-amine], the figures for the IC50 in test [1] and in test [3] were 100 to 1000 nM and under 5000 nM, respectively. The Ki in test [2] was under 10 nM.

With `O=C(c1ccc(Nc2nc(-c3cccs3)nc3cn[nH]c23)cc1)N1CCOCC1` [Example #294, morpholino(4-((5-(thiophen-2-yl)-1H-pyrazolo[4,3-d]pyrimidin-7-yl)amino)phenyl)methanone], the IC50 in test [1] was 100 to 1000 nM; in test [3], under 5000 nM. In addition, in test [2], the Ki is 10 to 100 nM.

Consider `c1csc(-c2nc(Nc3ccc(CN4CCOCC4)cc3)c3[nH]ncc3n2)c1` [Example #295, N-(4-(morpholinomethyl)phenyl)-5-(thiophen-2-yl)-1H-pyrazolo[4,3-d]pyrimidin-7-amine], for which the figures for the IC50 in test [1] and in test [3] were 100 to 1000 nM and under 5000 nM, respectively. Besides, the Ki in test [2] was under 10 nM.

With `COc1cc(Nc2ncc(F)c(Nc3ccc4c(n3)NC(=O)C(C)(C)O4)n2)cc(OC)c1OC` [Example R406], the “activity against JAK kinases” value in test [4] is listed as “active”. Further, the BCR signaling entry in test [5] (lymphoma cell lines and primary human lymphoma samples) is listed as “attenuates BCR signaling”. Besides, the apoptosis result in test [5] (lymphoma cell lines) is listed as “resulting in apoptosis of the former”. Besides, the “inhibition of ITAM signaling” value in test [6] is “inhibit ITAM signaling”. For the same compound, the clinical result in test [7] is listed as “favorable results”.
